Data as given in patent US7892780B2, “Method for screening antioxidant using mutant bacteria and chlorophyllide, and antioxidant screened by the method” (Industry-University Cooperation Foundation Sogang University, priority 2007, dated 2011).

System: Rhodobacter sphaeroides 2.4.1 SodB1 [KCTC 11069BP]
Assay: Antioxidant screening by growth of SodB1 mutant bacteria on chlorophyllide-added medium blocks or filter discs
Type: cell-based
Settings: sample dissolved in ethanol or dimethylsulfoxide, FIG. 5
Description: Next, an antioxidant sample and SodB1 mutant bacteria were added to these medium blocks, or otherwise chlorophyllide (0.1 to 100 mM) was added directly to filter discs to which a desired concentration of an antioxidant candidate material was then added. Thereafter, multimeric protein-expressing SodB1 mutant bacteria, i.e. Rhodobacter sphaeroides 2.4.1 SodB1 [KCTC 11069BP], were plated on a Sistrom's minimal medium [20 mM potassium dihydrogen phosphate (KH2PO4), 3.8 mM ammonium sulfate ((NH4)2SO4), 34 mM succinic acid, 0.59 mM L-glutamic acid, 0.30 mM L-aspartic acid, 8.5 mM sodium chloride, 1.05 mM nitrilotriacetic acid, 1.2 mM magnesium chloride (MgCl2.6H2O), 0.23 mM calcium chloride (CaCl2.7H2O), 25 μM ferrous sulfate (FeSO4.7H2O), 0.16 μM ammonium molybdate ((NH4)6Mo7O24.4H2O), 4.7 μM EDTA, 38 μM zinc sulfate (ZnSO4.7H2O), 9.1 μM manganese sulfate (MnSO4.H2O), 1.6 μM copper sulfate (CuSO4.5H2O), 0.85 μM cobalt (II) nitrate (Co(NO3)2.6H2O), 1.8 μM boric acid (H3BO3), 8.1 μM nicotinic acid, 1.5 μM thiamine hydrochloride, and 41 nM biotin] (Sistrom, W. R, 1962. J. Gen. Microbiol. 28: 607-616).
As a result, when there was an antioxidant activity in the antioxidant candidate material to be screened, cells grew only on the medium blocks or around filter discs and thus red bacteria were observed. […]

Compound: tocopherol
- cell growth of SodB1 mutant bacteria / prevention of cell death (antioxidant activity): partial cell growth

Compound: O=c1c(O)c(-c2ccc(O)c(O)c2)oc2cc(O)cc(O)c12 [quercetin]
- cell growth of SodB1 mutant bacteria / prevention of cell death (antioxidant activity): partial cell growth
